Measured values taken from article PMC9525653, “Mutations conferring SO4^2− pumping ability on the cyanobacterial anion pump rhodopsin and the resultant unique features of the mutant” (Scientific Reports, 2022).

Experiments:
MrHR [1] = target: MrHR (Mastigocladopsis repens, UniProt A0A6P3CW41); assay: biochemical
MrHR [2] = target: MrHR (Mastigocladopsis repens, UniProt A0A6P3CW41, E182T); assay: biochemical
Chain of MrHR (Mastigocladopsis repens, UniProt A0A6P3CW41, E182T) (A0A6P3CW41 1-232 E182T): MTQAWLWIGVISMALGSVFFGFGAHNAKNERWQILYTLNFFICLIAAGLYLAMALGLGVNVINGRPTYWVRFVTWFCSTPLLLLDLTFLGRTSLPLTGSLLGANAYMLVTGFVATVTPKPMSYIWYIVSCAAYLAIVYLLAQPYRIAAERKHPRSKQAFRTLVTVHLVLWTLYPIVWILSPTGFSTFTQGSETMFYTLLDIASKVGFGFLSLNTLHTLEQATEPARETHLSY

Chain of MrHR (Mastigocladopsis repens, UniProt A0A6P3CW41) (A0A6P3CW41 1-232): as the sequence (A0A6P3CW41 1-232 E182T) above, with T182E counted along it

For `Cl` [Cl^−], the Kd (MrHR [1]) was 4.98 mM and the Kd (MrHR [2]) was 1.18 mM.
